In US10813931B2, “Methods and compositions relating to the treatment of cancer” (THE BRIGHAM AND WOMEN'S HOSPITAL, INC., priority 2013, dated 2020):

Assays:
[1] = test system: taxane-refractory breast cancer explant; experiment: Human refractory breast cancer explant, immunohistochemistry; settings: ex vivo 72 h, taxane-containing regimen or Doxil, N=7
Protocol: Anonymous human breast cancer tissues (N=7) from patients refractory to taxane-containing regimens were incubated ex vivo in autologous patient serum in the presence or absence of taxane-containing or liposomal doxorubicin (Doxil) regimens for 72 hours. Following fixation in formalin and paraffin embedding, tissue was processed by H&E to identify tumor cells and immunohistochemistry (IHC) was performed to identify protein expression. IHC scores were determined in a third party blinded fashion by multiplying the intensity of staining at the cellular level with the percentage of cells stained per field of view.
Fresh tumor tissues were collected from breast cancer patients immediately after surgical resection at HCG cancer hospital, Bangalore, India. The tumor samples were transported to the laboratory at 4° C., in appropriate transport buffer within 60 minutes post-resection, for ex-vivo studies and molecular and pathological evaluation. […] After 48 hrs of treatment, tumor cell viability was measured and release of soluble cleaved caspase-3 and caspase-8 were determined.
Human Tumor tissues were fixed in Phos stop (Roche) containing 4% buffered formalin and embedded in paraffin. […] Immunoreactivity was scored by intensity of staining (0, no staining, 1 weak; 2 moderate; 3 strong) and percentage of positive cells. By multiplying both values, a final score was calculated. […]

[2] = test system: 4T-1 mouse mammary carcinoma; experiment: 4T-1 tumor growth in Balb/C mice; format: in vivo
Protocol: 4-6 week old Balb/C mice (Charles River, Cambridge Mass.) were inoculated with 10^6 4 T-1 mouse mammary carcinoma cells in the left flank (Charles River, Cambridge Mass.). Mice identified with tumors were treated with docetaxel (DTX) or vehicle twice at 72 hour intervals at 10 mg/kg i.v. or 15 mg/kg i.p. and subsequently treated with dasatinib i.p. or nanoparticles i.v. 72 hours following the final DTX dose. Tumors were harvested at indicated time points and evaluated for protein phosphorylation and expression. Experimental detail provided in supplemental data.
1 million 4T-1 mouse mammary carcinoma cells suspended in 100 µL PBS were injected per left flank of 5-6 week old Balb/C (Charles River, Wilmington Mass.). DTX was dissolved in pure Ethanol at a concentration of 50 mg/ml mixed 1:1 with Polysorbate 80 (Tween 80) and brought to a final working concentration with 5% glucose in PBS. Once Tumors became palpable (˜100 mm^3), DTX or vehicle treatments were administered at 100 μL volumes. Dasatinib was dissolved in DMSO to working concentration and delivered as 50 μL injections on indicated days, 50 µL DMSO used as a control in these studies. Tumor volumes were measured by a third party unaware of treatment conditions using digital calipers (Starlett, Athol, Mass.), volumes were assessed by the following formula: (Width×Width×length)/2 and expressed as relative volume increase from day 1. Tumor homogenate was prepared by homogenization of equal weight tissue sections incubated in 3×RIPA buffer containing 2× protease/phosphatase inhibitor cocktail (Thermo Fisher, Waltham, Mass.).

[3] = test system: MDA-MB-231 (231); experiment: CD44 surface expression by FACS in 231 cells; format: cell-based, human; settings: 4 hours post treatment, increasing doses
Protocol: MDA-MB-231, MDA-MB-468 were purchased from ATCC. For acute treatments, cells were plated at a density of 0.5-1×10^5 cells/ml and allowed to adhere for 24-48 hr. when cells reached ˜70% confluency they were treated with antitubulins at indicated concentrations for 4-24 hours and utilized for subsequent assays. To generate chemotherapy tolerant subset, cells were treated with indicated concentrations of chemotherapy (48). Following washes with PBS, adherent cells were trypsinized and re-plated at a density of 1.5-2×10^5 cells/ml and cultured in serum-containing medium. […]
Cells were cultured as indicated and fixed with 4% paraformaldehyde in PBS for 30 min at RT and blocked in 10% goat serum (v/v). Following PBS washes, cells were incubated with indicated antibodies for 60 minutes at room temperature or overnight at 4 C and analyzed by FACS (Accuri cyomteters Inc. Ann Arbor, Mich.). Cell cycle analyzed in propidium iodide solution following incubation in 70% Ethanol overnight at 4 C and following manufacturer protocol (Genscript USA Inc. Piscataway, N.J.). AnnexinV/PI was analyzed FACS following manufacturer protocol (BD, Ann Arbor Mich.). All FACS results were analyzed by FlowJo™ software following a rigorous doublet discrimination based on FSC:A vs. width as well as FSC:A vs. height (Tree Star Inc., Ashland Oreg.). […]

CC(=O)O[C@@]12CO[C@@H]1C[C@H](O)[C@@]1(C)C(=O)[C@H](O)C3=C(C)[C@@H](OC(=O)[C@H](O)[C@@H](NC(=O)OC(C)(C)C)c4ccccc4)C[C@@](O)([C@@H](OC(=O)c4ccccc4)[C@H]21)C3(C)C [DTX, docetaxel]
CD44 expression (IHC) [1]: induced the over-expression of CD44 | tumor re-emergence after treatment ([2]; DTX days 2 and 5, day 19): re-emerged robustly by day 19 | tumor growth (relative tumor volume) ([2]; DTX days 2 and 5 at 10 mg/kg i.v. and 15 mg/kg i.p., vs vehicle): inhibited tumor growth | CD44 induction [3]: dose-dependent manner
